Measured values as given in patent publication US20080312230A1, “Organic Compounds” (Novartis AG, priority 2005, published 2008).

Biological target: T1, CRTh2 receptor (Homo sapiens, UniProt Q9Y5Y4)
T1 construct: expressed in transfected cells; host or cells: CHO.K1 (Chinese Hamster Ovary)
T1 sequence (Q9Y5Y4 1-395): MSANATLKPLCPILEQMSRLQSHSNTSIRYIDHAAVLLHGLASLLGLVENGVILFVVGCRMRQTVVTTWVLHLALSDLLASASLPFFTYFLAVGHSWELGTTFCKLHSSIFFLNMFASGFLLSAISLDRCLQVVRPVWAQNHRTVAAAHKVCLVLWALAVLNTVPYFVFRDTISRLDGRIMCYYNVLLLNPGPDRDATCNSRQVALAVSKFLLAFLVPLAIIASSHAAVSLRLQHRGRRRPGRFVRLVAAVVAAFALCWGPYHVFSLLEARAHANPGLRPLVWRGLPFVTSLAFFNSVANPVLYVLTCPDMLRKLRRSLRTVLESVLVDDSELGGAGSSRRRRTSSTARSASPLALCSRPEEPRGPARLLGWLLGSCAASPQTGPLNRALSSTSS
Assay: Filtration binding assay: [3H]-PGD2 competition on CHO.K1-CRTh2 membranes
Settings: competition with 2.5 nM [3H]-PGD2, CHO.K1-CRTh2 membranes, Cheng-Prussoff; read-out: Ki values in the SPA binding assay
Experimental: Filtration Binding Assay Protocol
The binding of CRTh2 antagonists is determined using membranes prepared from human CRTh2-expressing Chinese Hamster Ovary cells (CHO.K1-CRTh2). To produce cell membranes CHO.K1-CRTh2 cells cultured in roller bottles are harvested using cell dissociation buffer (Invitrogen). The cells are pelleted by centrifugation (167 g, 5 min). The cell pellet is incubated in hypotonic buffer (15 mM Tris-OH, 2 mM MgCl2, 0.3 mM EDTA, 1 mM EGTA, 1× Complete™ tablet) at 4° C. for 30 min. At 4° C. cells are homogenized using a Polytron® (IKA Ultra Turrax T25) for 5 bursts of 1 second. The homogenate is centrifuged (Beckman Optima TM TL Ultracentrifuge, 48000 g, 30 min at 4° C.). The supernatant is discarded and the membrane pellet resuspended in homogenisation buffer (75 mM Tris-OH, 12.5 mM MgCl2, 0.3 mM EDTA, 1 mM EGTA, 250 mM Sucrose, 1× Complete™ tablet. Membrane preparations are aliquoted and stored at […]. The protein content is estimated using Bradford Protein Assay Dye (Bio Rad).
The binding of [^3H]-PGD2 (157 Ci/mmol) to CHO.K1-CRTh2 membranes is determined in the absence (total binding) and presence (non-specific binding) of unlabelled PGD2 (1 μM). Subtraction of the cpm (counts per minute) of [^3H]-PGD2 binding in presence of excess unlabelled PGD2 from that observed in the absence of excess unlabelled PGD2 is defined as specific binding. Active CRTh2 antagonists are able to compete with [^3H]-PGD2 for binding to the CRTh2 receptor and are identified in a decrease in the number of cpm bound.
The assay is performed in Greiner U-bottomed 96 well-plates, in a final volume of 100 μl per well. CHO.K1-CRTh2 membranes were diluted in assay buffer (10 mM HEPES-KOH (pH 7.4), 1 mM EDTA and 10 mM MnCl2) and 10 μg are added to each well. [^3H]-PGD2 is diluted in assay buffer and added to each well at a final concentration of 2.5 nM. To determine non-specific binding, [^3H]-PGD2 binding to the CRTh2 receptor is competed with using unlabelled PGD2 at a final well concentration of 1 μM. The experiment is done in triplicate, with reagents added to the wells as follows:
25 μL assay buffer for total binding or
25 μL PGD2 to determine non-specific binding
25 μL test compound in DMSO/assay buffer
The plates are incubated at room temperature on a shaker for 1 hour, and then harvested (Tomtec Harvester 9600) onto GF/C filter plates using wash buffer (10 mM HEPES-KOH, pH 7.4). The plate is dried for 2 hours, prior to addition of Micro-Scint 20™ (50 μL) and sealing with TopSeal-S™. Plates are then counted using a Packard Top Count instrument, Plates are then read on the Packard Topcount with the 3H Scintillation program (1 min per well).
Ki (dissocation constant for the inhibition) values for the CRTh2 antagonists are reported. Ki values are determined using Sigma Plot™ software, using the Cheng-Prussoff equation.
Where S is the Concentration of Radioligand and Kd is the Dissociation Constant.

Structure (SMILES)	Ki [nM]
Cc1c(CC(=O)O)c2cccnc2n1C(C)c1ccc(S(C)(=O)=O)cc1 (single isomer, unassigned) [Example 97, {1-[1-(4-Methanesulfonyl-phenyl)-ethyl]-2-methyl-1H-pyrrolo[2,3-b]pyridin-3-yl}-acetic acid]	11
Cc1c(CC(=O)O)c2cccnc2n1C(C)c1ccc(Cl)cc1 (stereo not drawn) [Example 84, {1-[1-(4-Chloro-phenyl)-ethyl]-2-methyl-1H-pyrrolo[2,3-b]pyridin-3-yl}-acetic acid]	100
Cc1c(CC(=O)O)c2cccnc2n1Cc1ccc(S(C)(=O)=O)cc1Cl [Example 90, [1-(2-Chloro-4-methanesulfonyl-benzyl)-2-methyl-1H-pyrrolo[2,3-b]pyridin-3-yl]-acetic acid]	3
Cc1c(CC(=O)O)c2cccnc2n1Cc1ccc(S(C)(=O)=O)c(C(F)(F)F)c1 [Example 92, [1-(4-Methanesulfonyl-3-trifluoromethyl-benzyl)-2-methyl-1H-pyrrolo[2,3-b]pyridin-3-yl]-acetic acid]	22
CCS(=O)(=O)c1ccc(Cn2c(C)c(CC(=O)O)c3cccnc32)c(C(F)(F)F)c1 [Example 93, [1-(4-Ethanesulfonyl-2-trifluoromethyl-benzyl)-2-methyl-1H-pyrrolo[2,3-b]pyridin-3-yl]-acetic acid]	8
CCS(=O)(=O)c1ccc(Cn2c(C)c(CC(=O)O)c3cccnc32)c(Cl)c1 [Example 94, [1-(2-Chloro-4-ethanesulfonyl-benzyl)-2-methyl-1H-pyrrolo[2,3-b]pyridin-3-yl]-acetic acid]	7
Cc1c(CC(=O)O)c2cccnc2n1Cc1ccc(S(C)(=O)=O)cc1 [Example 96]	29
Cc1c(CC(=O)O)c2ccc(Cl)nc2n1Cc1ccc(S(C)(=O)=O)cc1 [Example 99, [6-Chloro-1-(4-methanesulfonyl-benzyl)-2-methyl-1H-pyrrolo[2,3-b]pyridin-3-yl]-acetic acid]	12
Cc1c(CC(=O)O)c2ccc(Cl)nc2n1Cc1ccc(S(C)(=O)=O)cc1C(F)(F)F [Example 100, [6-Chloro-1-(4-methanesulfonyl-2-trifluoromethyl-benzyl)-2-methyl-1H-pyrrolo[2,3-b]pyridin-3-yl]-acetic acid]	5
COc1cc(S(=O)(=O)n2c(C)c(CC(=O)O)c3cccnc32)ccc1F [Example 102, [1-(4-Fluoro-3-methoxy-benzenesulfonyl)-2-methyl-1H-pyrrolo[2,3-b]pyridin-3-yl]-acetic acid]	56
Cc1c(CC(=O)O)c2cccnc2n1S(=O)(=O)c1ccc(Cl)c(C#N)c1 [Example 103, [1-(4-Chloro-3-cyano-benzenesulfonyl)-2-methyl-1H-pyrrolo[2,3-b]pyridin-3-yl]-acetic acid]	35
Cc1c(CC(=O)O)c2cccnc2n1Cc1ccc(S(=O)(=O)C(C)C)cc1 [Example 105, {2-Methyl-1-[4-(propane-2-sulfonyl)-benzyl]-1H-pyrrolo[2,3-b]pyridin-3-yl}-acetic acid]	98
Cc1cc(S(C)(=O)=O)ccc1Cn1c(C)c(CC(=O)O)c2cccnc21 [Example 112, [1-(4-Methanesulfonyl-2-methyl-benzyl)-2-methyl-1H-pyrrolo[2,3-b]pyridin-3-yl]-acetic acid]	31
Cc1c(CC(=O)O)c2cccnc2n1C(C)c1ccc(C(F)(F)F)cc1 (stereo not drawn) [Example 115, {2-Methyl-1-[1-(4-trifluoromethyl-phenyl)-ethyl]-1H-pyrrolo[2,3-b]pyridin-3-yl}-acetic acid]	45
Cc1c(CC(=O)O)c2cccnc2n1C(C)c1ccc(S(C)(=O)=O)cc1 (stereo not drawn) [Example 117, {1-[1-(4-Methanesulfonyl-phenyl)-ethyl]-2-methyl-1H-pyrrolo[2,3-b]pyridin-3-yl}-acetic acid]	25

Next, values leading:

Ki [nM]	Structure (SMILES)
29	Cc1c(CC(=O)O)c2cccnc2n1Cc1ccc(C(F)(F)F)cc1C(F)(F)F [Example 119, [1-(2,4-Bis-trifluoromethyl-benzyl)-2-methyl-1H-pyrrolo[2,3-b]pyridin-3-yl]-acetic acid]
147	Cc1c(CC(=O)O)c2cccnc2n1Cc1ccc([N+](=O)[O-])cc1 [Example 122, [2-Methyl-1-(4-nitro-benzyl)-1H-pyrrolo[2,3-b]pyridin-3-yl]-acetic acid]
27	Cc1c(CC(=O)O)c2cccnc2n1Cc1ccc(S(C)(=O)=O)c(Cl)c1 [Example 125, [1-(3-Chloro-4-methanesulfonyl-benzyl)-2-methyl-1H-pyrrolo[2,3-b]pyridin-3-yl]-acetic acid]
43	CCOc1cc(S(=O)(=O)n2c(C)c(CC(=O)O)c3cccnc32)ccc1C#N [Example 127, [1-(4-Cyano-3-ethoxy-benzenesulfonyl)-2-methyl-1H-pyrrolo[2,3-b]pyridin-3-yl]-acetic acid]
43	COc1cc(S(=O)(=O)n2c(C)c(CC(=O)O)c3cccnc32)ccc1C#N [Example 129, [1-(4-Cyano-3-methoxy-benzenesulfonyl)-2-methyl-1H-pyrrolo[2,3-b]pyridin-3-yl]-acetic acid]
50	CCCOc1cc(S(=O)(=O)n2c(C)c(CC(=O)O)c3cccnc32)ccc1C#N [Example 130, [1-(4-Cyano-3-propoxy-benzenesulfonyl)-2-methyl-1H-pyrrolo[2,3-b]pyridin-3-yl]-acetic acid]
64	COc1cc(S(=O)(=O)n2c(C)c(CC(=O)O)c3cccnc32)ccc1Cl [Example 148, [1-(4-Chloro-3-methoxy-benzenesulfonyl)-2-methyl-1H-pyrrolo[2,3-b]pyridin-3-yl]-acetic acid]

Biological target: T1, CRTh2 receptor
Assay: CRTH2 cAMP functional assay in CHO.K1-CRTh2 cells
Type: cell-based
Settings: not given
Experimental: The assay plate is incubated at room temperature on a shaker for 15 minutes.
A mix of agonist (10 nM Prostaglandin D2) and 5 μM forskolin is prepared in assay stimulation buffer and added to the assay plate (5 μL/well).
In addition, a cAMP standard is serially diluted in assay stimulation buffer and added to separate empty wells on the assay plate (20 μL/well).
The assay plate is incubated at room temperature on a shaker for 60 minutes.
The resulting lysis mix is added to all wells of the assay plate (40 μL/well).
The assay plate is sealed with Topseal-S™ and incubated in the dark at room temperature on a shaker for 45 minutes. The plate is then counted using a Packard Fusion™ instrument.
The resulting counts per minute are converted to nM cAMP by using the prepared cAMP standard curve.

Structure (SMILES)	IC50 [nM]
Cc1c(CC(=O)O)c2cccnc2n1S(=O)(=O)c1ccc([N+](=O)[O-])cc1 [Example 3]	276
Cc1c(CC(=O)O)c2cccnc2n1C(C)c1ccc(Cl)cc1 (stereo not drawn) [Example 84, {1-[1-(4-Chloro-phenyl)-ethyl]-2-methyl-1H-pyrrolo[2,3-b]pyridin-3-yl}-acetic acid]	84
